Laboratory results as given in patent US20220361500A1, “STRIGOLACTONE DERIVATIVES AS PLANT GROWTH REGULATOR COMPOUNDS” (SYNGENTA CROP PROTECTION AG, priority 2020, published 2022).

test system: corn leaf discs (variety Multitop); assay: Dark induced senescence of corn leaf; details: Zea mays, foliar, 192 h, 100 μM-0.0001 μM, 0.5% DMSO, 23° C., 8 days, image analysis, read-out: IC50 (concentration at which 50% senescence was achieved), dark induced senescence of corn leaf
Experimental: It is known that strigolactones regulate (accelerate) leaf senescence, potentially through D14 receptor signaling. Corn plants of variety Multitop were grown in a greenhouse with relative 75% humidity and at 23-25° C. for 6 weeks. 1.4 cm diameter leaf discs were placed into 24-well plates containing test compounds in a concentration gradient (100 μM-0.0001 μM) at a final concentration of 0.5% DMSO. Each concentration was tested in 12 replicates. Plates were sealed with seal foil. The foil was pierced to provide gas exchange in each well. The plates were placed into the completely dark climatic chamber. Plates were incubated in the chamber with 75% humidity and at 23° C. for 8 days. On days 0, 5, 6, 7 and 8 photographs were taken of each plate, and image analysis conducted with a macro developed using the ImageJ software. The image analysis was used to determine the concentration at which 50% senescence was achieved (IC50), see Table 4. The lower the value, the higher senescence induction potency.

Structure (SMILES) | IC50
CC1=C(C)C(O/C=C2/C(=O)OC3Sc4ccccc4C23)OC1=O (centres unmarked) [Compound I-8, (1E)-1-[(3,4-dimethyl-5-oxo-2H-furan-2-yl)oxymethylene]-3a,8b-dihydrobenzothiopheno[2,3-b]furan-2-one] | 40 nM
CC1=CC(O/C=C2/C(=O)OC3Oc4ccccc4C23)OC1=O (centres unmarked) [Compound I-1, (1E)-1-[(4-methyl-5-oxo-2H-furan-2-yl)oxymethylene]-3a,8b-dihydrofuro[2,3-b]benzofuran-2-one] | 30 nM

Continued by falling IC50, values first:

IC50 | Structure (SMILES)
30 nM | CC1=CC(O/C=C2/C(=O)OC3COc4ccccc4C23)OC1=O (centres unmarked) [Compound I-31, (1E)-1-[(4-methyl-5-oxo-2H-furan-2-yl)oxymethylene]-4,9b-dihydro-3aH-furo[2,3-c]chromen-2-one]
15 nM | CC1=C(C)C(O/C=C2/C(=O)OC3Oc4ccccc4C23)OC1=O (centres unmarked) [Compound I-2, (1E)-1-[(3,4-dimethyl-5-oxo-2H-furan-2-yl)oxymethylene]-3a,8b-dihydrofuro[2,3-b]benzofuran-2-one]
15 nM | CC1=CC(O/C=C2/C(=O)OC3C2c2ccccc2[S+]3[O-])OC1=O (centres unmarked) [Compound I-13, (1E)-1-[(4-methyl-5-oxo-2H-furan-2-yl)oxymethylene]-4-oxo-3a,8b-dihydrobenzothiopheno[2,3-b]furan-2-one]
